System: Duramyl 60T (α-amylase)
Assay: Activation of Duramyl 60T by types of oxidizing agents (phadebas method)
Type: biochemical
Details: activity of Duramyl 60T (a1) after contact with oxidizing agent powder (b2), ratio 10/1; 25° C., 8 g/m^3, 30 minutes
Experimental: One tablet from Neo, Amylase Test “Daiichi” (product number: 701501-005, available from Daiichi Pure Chemicals Co., Ltd.) was added to 5 mL buffer (Britton-Robinson's Buffer, pH 8.5, 50 mM (Koichi Anan et al., Fundamental Biochemical Experimental Method 6 [in Japanese], p. 277, Maruzen Co., Ltd.)) and stirred for about 10 seconds, then 1 mL enzyme solution diluted with 2 mM aqueous calcium chloride was added, and the mixture was reacted at 50° C. for 15 minutes. 1 mL of 0.5 N aqueous sodium hydroxide was added to the solution under stirring to terminate the reaction, and then the reaction solution was centrifuged (400×g, 5 minutes) to precipitate insoluble components, and the supernatant thus obtained by centrifugation was measured for absorbance at 620 nm.
One tablet from Neo, Amylase Test “Daiichi” was added to 5 mL buffer (Britton-Robinson's Buffer, pH 8.5, 50 mM (Koichi Anan et al., Fundamental Biochemical Experimental Method 6 [in Japanese], p. 277, Maruzen Co., Ltd.)) and stirred for about 10 seconds. […] The supernatant thus obtained by centrifugation was measured for absorbance at 620 nm.
The activity of amylase was calculated from the difference in absorbance between (1) and (2) in a calibration curve as a standard of an International Unit sample enclosed with Neo, Amylase Test “Daiichi”. […]

SMILES: O.O.O.O.O=BO[O-].[Na+] [Sodium perborate•4H2O, sodium perborate.4H2O]
- Relative activity (%): 140%

SMILES: O.[Na+].[O-][Cl+3]([O-])([O-])[O-] [Sodium perchlorate•1H2O, sodium perchlorate.1H2O]
- Relative activity (%): 120%
